Data on three molecules can be found in patent publication US20200165608A1, “INHIBITION OF VASCULAR ENDOTHELIAL CELL-MEDIATED PHAGOCYTIC PROCESSES FOR TREATMENT OF DEMYELINATING CONDITIONS” (FLORIDA STATE UNIVERSITY RESEARCH FOUNDATION, INC., priority 2018, published 2020).

One data set relates to myelin-ECs (BMECs). The data set is described as follows: Myelin degradation into neutral lipids (Oil Red O staining) in myelin-BMECs after autophagy drug treatment. The data set is classed as cell-based, mouse. The note with it: 3-MA 2 mM 48 hr (1 mM elsewhere in the source), chloroquine 10 μM 24 hr, rapamycin 1 μM 24 hr. As for the experimental part:
Oil Red O (ORO) staining. ORO staining was performed to detect intracellular neutral lipid accumulation in injured spinal cords and cultured BMECs. Spinal frozen sections or fixed cells were dehydrated in 100% propylene glycol for 5 min, then stained with 0.5% ORO solution at 60° C. for 8 min. The samples were then processed with 85% propylene glycol for 5 min followed by distilled water rinsing for 3 times. Stained samples were imaged with a confocal laser scanning microscope. Starvation and drug treatments for autophagy assays. BMECs cultured with 5% FBS containing medium were used as negative control for autophagy. The positive control for autophagy induction, BMECs, were starved with Hanks Balanced Salt Solution for 6 hr to induce autophagy. 10 μM chloroquine, an inhibitor of lysosomes, or 1 μM of rapamycin, an inducer of autophagy, was added to BMECs cultures for 24 hr after myelin debris treatment. 2 mM of 3-MA, a PI3K inhibitor of autophagy was cultured with ECs for 48 hr, starting from the last 24 hr treatment of myelin debris to the subsequent 24 hr of medium wash. Cells grown on coverslips were fixed and stained with Oil Red 0 for detection of myelin-derived lipids as above described.

In data set [1] the test system is BMECs. The conditions noted are these: 1 mM 3-MA (48 hr), 10 μM chloroquine (24 hr).
Procedure: Propidium iodide (PI) staining assay for cell death analysis. Wild-type BMECs or Atg5 knockout BMECs were cultured with DMEM medium containing 5% FBS in 24-well plate. To test the toxicity of different autophagy-related drugs, BMECs were treated with or without myelin debris and were treated with or without 1 mM 3-MA (48 hr), 10 μM chloroquine (24 hr), or 1 μM rapamycin (24 hr). After reaching 70% confluence, cells were washed with 1×PBS and fixed with 4% PFA. The fixed cells were stained with propidium iodide and Hoechst, followed by imaging and quantification of PI positive nucleus using Nikon Element software.
Data set [2] relates to BMECs. Put plainly: In vitro endothelial-to-mesenchymal transition (endoMT) assays. The note with it: TGF-β1 10 ng/ml. The data set is classed as cell-based, mouse. The method, then:
In vitro endothelial-to-mesenchymal transition (endoMT) assays. 5×10^3 BMECs were seeded in 24-well plate for endoMT induction. As positive control, recombinant TGF-β1 protein ([…]) was added to BMECs for 72 hr to induce in vitro endoMT. Cells were considered spindle-shaped when the diameter at their longest axis to be 1.5-fold greater than the average diameter of untreated cobblestone BMECs. Myelin debris (1 mg/ml) was added to BMECs for 1, 3, 5, 7, and 10 days and culture medium was changed every 3 days, followed by morphological observation of spindle-shape cells. α-SMA staining was used to confirm the mesenchymal transition. Percentage of spindle-shaped cells and percentage of a-SMA^+/CD31^+ were quantified. To examine the role of TGF-β in myelin-induced endoMT, pan TGF-β neutralizing antibody (20 μg/ml) was added to BMECs together with myelin debris for 10 days and re-supplemented every 3 days.

[3] abbreviates: q-PCR, immunostaining and western blot.

As to `CCN(CC)CCCC(C)Nc1ccnc2cc(Cl)ccc12` (stereo not drawn) [chloroquine], the “myelin degradation into neutral lipids (ORO+ lipids) in myelin-ECs” value in the data set on myelin-ECs (BMECs) was “significantly inhibited myelin degradation into neutral lipids”. For the same molecule, in the data set on BMECs [1], the “cell toxicity (cell death by PI staining)” value is reported as “without causing apparent cell toxicity”.

`Cn1cnc(N)c2ncnc1-2` [3-MA, 3-methyladenine]: the “myelin degradation into neutral lipids (ORO+ lipids) in myelin-ECs” value in the data set on myelin-ECs (BMECs) is “significantly inhibited myelin degradation into neutral lipids”.

As to “TGF-β1: Recombinant mouse TGF-β1 (#5231), positive control, strong inducer of endoMT”, the “BMEC morphology (induction of endoMT)” value with BMECs [2] (3 days) was “elongated and exhibited the same spindle-like morphology as fibroblasts”. In the data set with BMECs [2] (setting [3]), the “CD31 expression in BMECs” value was “markedly downregulated CD31 expression” and the “a-SMA expression in BMECs” value is given as “strongly induced a-SMA expression”.
